The numbers were not newly measured in paper PMC12840679, “Rational Design, Synthesis and Pharmacological Evaluation of Chalcones as Dual-Acting Compounds—Histamine H3 Receptor Ligands and MAO-B Inhibitors” (International Journal of Molecular Sciences, 2026), which cites them from elsewhere.

The data set deals with hH3R (Homo sapiens, UniProt Q9Y5N1). Conditions: HEK293 cells.
Sequence of hH3R (Q9Y5N1 whole entry): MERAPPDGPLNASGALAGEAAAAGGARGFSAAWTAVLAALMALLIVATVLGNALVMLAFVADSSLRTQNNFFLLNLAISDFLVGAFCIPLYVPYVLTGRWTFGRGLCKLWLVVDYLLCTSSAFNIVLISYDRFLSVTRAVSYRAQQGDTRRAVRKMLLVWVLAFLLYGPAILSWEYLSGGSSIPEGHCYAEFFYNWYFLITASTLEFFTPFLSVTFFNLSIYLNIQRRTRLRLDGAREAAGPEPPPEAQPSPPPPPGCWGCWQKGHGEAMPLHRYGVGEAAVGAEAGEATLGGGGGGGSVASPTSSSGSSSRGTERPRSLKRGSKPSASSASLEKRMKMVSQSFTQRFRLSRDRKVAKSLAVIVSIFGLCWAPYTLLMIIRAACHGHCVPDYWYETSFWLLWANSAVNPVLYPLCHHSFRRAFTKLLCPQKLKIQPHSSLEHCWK

As for `CC(C)(C)c1ccc(OCCCN2CCCCC2)cc1` [DL76], the Ki – broadly, a measure of affinity in units of concentration, obtained from inhibition or displacement – was 58 nM.
